Test results published in patent US20060275510A1, “Formulations for menopausal syndromes” (Hong Kong Jockey Club Institute of Chinese Medicine Limited, priority 2005, published 2006).

Tests used:
Type in all cases: in vivo
ovariectomized hamsters [1] = assay: Ferric Reducing Ability of Plasma (FRAP) in ovariectomized hamsters; settings: Positive control
Description: The higher the anti-oxidation level, the more Fe^2+ ions are reduced from Fe^3+ ions. See Benzie I F and Szeto Y T (1999).
47 female hamsters, weighed about 100 g, bred at the Laboratory Animal Services Center (LASEC) of the Chinese University of Hong Kong, were randomly divided into 6 groups.
Apparatus: • UV-visible spectrophometer: manufacturer Shimadzu, product code: UV-1601
Method: 47 female hamsters weighed 100 g were divided into 6 groups, including three test groups 1, 2, and 3, the positive control group 4, the negative control group 5, and the sham operated group 6.
The hamsters in groups 1-5 were ovariectomized. A month afterwards, the hamsters in groups 1-6 were administered intragastrically with the drugs and doses indicated above, once every day for consecutive 4 weeks. After 4 weeks of administration, blood samples were obtained from the orbital venous sinus, and were subjected to centrifugation at 10,000 rpm for 10 minutes to collect serum. 10 μl of serum was diluted with 490 μl double distilled water. 300 μl freshly prepared FRAP reagent was then added to initiate the reaction. The samples were placed under 593 nm to observe the changes of absorbance during the first 10 minutes of the reduction of Fe^3+ to Fe^2+. The increase in absorbance is an indicator of the level of reduction. The Ferric Reducing Ability of Plasma (FRAP) values were determined as follows: […]

ovariectomized hamsters [2] = assay: Serum [non-HDL]/[HDL] ratio and kidney cholesterol in ovariectomized hamsters; settings: Positive control, 17β Estradiol 21 day release 0.5 mg/pellet
Method: Animals: hamsters, female, weighed 100 g, bred at the Laboratory Animal Services Center (LASEC) of the Chinese University of Hong Kong, randomly divided into 6 groups.
Dose: 0.5 mg/pellet, catalogue no.: E121 • The sham operated group: hamsters received the operation but not ovariectomy. Method:
47 hamsters weighed 100 g were divided into 6 groups including the positive group, negative group, sham operated and 3 dosage groups (low, medium and high). All hamsters except those in the sham operated group received ovariectomy. A month after the ovariectomy operation, all hamsters were administered intragastrically with drugs and doses indicated above, once a day for consecutive 4 weeks. […] The non-HDL/HDL ratio in serum was analyzed according to See Ho K K W, Leung L K, Chan F L, Huang Y, Chen Z Y (2003).
The hamsters received administration intragastrically for another 4 weeks prior to killing by nitrogen narcosis. The cholesterol level in kidney was measured by gas chromatography.
300 mg of the kidney and 1 mg of the internal standard (IS), stigniastanol (Sigma, S-4297) was homogenized using Polytron homogenizer in 15 ml chloroform-methanol (2:1, v/v) and 3 ml 0.9% saline. […] The TMS-ether derivative was analyzed in a fused silica capillary column (SAC™-5, 30 m×0.25 mm, i.d.; Supelco, Inc., Bellefonte, Pa., USA) in a Shimadzu GC 14B GLC equipped with a flame-ionization detector (Shimadzu). […]

[3] = tested on: pentobarbital sodium-injected mice; assay: Sleeping test (pentobarbital sodium-induced sleep); settings: female KM mice; oral; Composition I 56 g (crude herb)/kg/d 14 days, Diazepam 0.5 mg/kg once on day 14; pentobarbital sodium 35 mg/kg i.p. 1 h after last dose
Procedure: According to Xu S Y. (1991 ), Chen Q. (1996 ), Zhang J T. (1998 ), Zhu X D. and Tang X C. (1998 ), an agent is deemed to have sedative and hypnotic effects if it can prolong the duration of the sleep, as indicated by the disappearance of right reflex, of pentobarbital sodium-injected mice
Drug, dose, and the administration formulation: • For negative control group: 0.9% saline. • For positive control group: Diazepam, purchased from BangNing Pharmaceutical Co. Ltd. The dose was 0.5 mg/kg weight/d. […] The dose was 56 g (crude herb)/kg weight/d. […] Method:
Thirty normal female mice weighed between 18-20 g were randomized into 3 groups of 10: the negative control group, the positive control group, and the test group. For the negative control and testing group, the drugs were administered to the mice orally with the doses and formulations indicated, once per day for consecutive 14 days. For the positive control group, the drug was given on the day fourteen orally. One hour after the last administrations, all mice were injected with 35 mg/kg of pentobarbital sodium intraperitoneally. The duration of the disappearance of righting reflex was observed and recorded. According to Zhang J T. (1998 ), the duration of the disappearance of righting reflex equals to the sleeping time.

KM mice [4] = assay: Open field test (spontaneous activity); settings: female KM mice; oral; Composition I 14 g (crude herb)/kg/d 14 days, Diazepam 1.0 mg/kg once on day 14
Method: KM mice, females, weighed between 18-20 g, purchased from Shanghai Experimental Animal Center, the Chinese Academy of Sciences.
• Multi-functional Auto-Motion Recorder for Mouse/Rat: manufactured by Facility Station of Shandong Academy of Medical Science. Product code: YLS-1B.
Drug, dose, and the administration formulation: • For negative control group: 0.9% saline. • For positive control group: Diazepam as described above. The dose was 1.0 mg/kg weight/d. […] The dose was 14 g (crude herb)/kg weight/d. […] Method:
Thirty normal female mice weighed between 18-20 g were randomized into 3 groups of 10: negative control, positive control and the test group. For the negative control and testing group, the drugs were administered to the mice orally with the doses and formulations described above, once per day for consecutive 14 days. For the positive control group, the drug was given on the day fourteen orally. One hour after the last administration, the mice were individually placed into a box with infrared detection light to record their spontaneous activities in 3 minutes.

normal female mice = assay: Dark-light box test on normal mice; settings: within 10 minutes, oral, Composition I 56 g (crude herb)/kg/d 14 days, Diazepam 1.0 mg/kg once on day 14, 1 h after last dose
Procedure: In the experiment, mice were placed in Shimada light and dark box. The times of mice shuttling between the boxes and the duration of mice staying in the dark/light box were recorded.
• Shimada light and dark box: size: 40 cm×40 cm×12 cm, having a light box (20 cm×20 cm×12 cm) at the center, and two dark boxes (10 cm×10 cm×12 cm) at two diagonal corners. Two L-shaped tracks are connected to two sides of each dark box. Manufacturer: Shanghai Institute of Pharmaceutical Industry. Animals:
Thirty normal female mice weighed between 18-20 g were randomized into 3 groups of 10: negative control, positive control (Diazepam) and the test group. The mice in the negative and test groups were administered orally with respective drugs and doses as indicated above, once a day for consecutive 14 days. The mice in the positive control group received only one dose orally as indicated above on day fourteen. 1 hour after the last administration on day fourteen, all the mice were placed in the Shimada light and dark box.

ovariectomized mice = assay: Dark-light box test on ovariectomized mice; settings: within 10 minutes, oral, Composition I 14 g (crude herb)/kg/d 14 days, Diazepam 1.0 mg/kg once on day 14, 1 h after last dose
Procedure: The same experiment of Example 5 was conducted on ovariectomized mice. […] See Xu S Y. (1991), Chen Q. (1996), Zhang J T. (1998).
Apparatus: Same as Example 5.
Animals: Same as Example 5.
Negative control group: 0.9% saline,
Positive control group: Diazepam, 1.0 mg/kg weight
Thirty female mice were anaesthetized by intraperitoneal injection with 35 mg/kg Pentobarbital Sodium. Two cuts were made on the back of the rats, each cut being 1.5 cm from the spine. The two ovaries were taken from the two cuts, respectively. The cuts were then sealed. 1 week after the ovariectomization, the 30 mice were randomly divided into 3 groups, and the same administration procedures as Example 5 were followed, using drugs and doses specified above. 1 hour after the last administration on day fourteen, all the mice were placed in the Shimada light and dark box.

ovariectomized rats [5] = assay: Elevated plus-maze test on ovariectomized rats; settings: oral, Composition I 14 g (crude herb)/kg/d 14 days, Diazepam 0.5 mg/kg once on day 14, 1 h after last dose
Method: SD rats, female, weighed 230-250 g, purchased from Shanghai Experimental Animal Center, the Chinese Academy of Sciences.
• For negative control group: 0.9% saline. • For positive control group: Diazepam as described above. The dose was 0.5 mg/kg weight. • For test group: Composition as prepared in Experiment 1. The dose was 14 g (crude herb)/kg weight/d. Method:
Thirty female rats were divided into the above-mentioned 3 groups randomly and were anaesthetized by intraperitoneal injection with 60 mg/kg Pentobarbital Sodium. Two cuts were made on the back of the rats, each cut being 1.5 cm from the spine. The two ovaries were taken from the two cuts, respectively. The cuts were then sealed. The drug administration began 1 week after the ovariectomization. […] The rats in the positive control group received Diazepam orally only once on day fourteen. 1 hour after the last administration, the rats were placed in a maze.

ovariectomized rats [6] = assay: Serum estrogen and progesterone levels (RIA), uterus weight and visceral index in ovariectomized rats; settings: ovariectomized SD rats, 28 days once daily, n = 6
Procedure: Female hormone stimulates estrogen in overiectomized female mice/rats.
SD rats, female, weighted between 220-250 g before administration, purchased from Shanghai Sino-British Sippr/BK LAB Animal Ltd., randomly split into 5 groups.
• Negative control group: 0.9% saline • Positive control group: • 1. Estradiol Benzoate, purchased from Shanghai No. 9 Pharmaceutical Ltd. Dose: 0.01 mg/kg weight/day • 2. ZuoGuiWan, purchased from Shanghai Leiyunshang Fengbang Pharmaceutical Co., Ltd. • 3. GengNianAn, purchased from Zhongxin Pharmacy Tianjin Leren Tang Pharmaceutical Factory. […] Dose: 1.0 ml/100 g weight/day • Positive control group: • 1. Estradiol Benzoate, Dose: […] dissolved in peanut oil (0.01 mg/ml). • 2. ZuoGuiWan, Dose: 7 g/kg weight/day dissolved in 0.5% CMC—Na, • 3. GengNianAn, Dose: 6 g/kg weight/day dissolved in 0.5% CMC—Na, • 5.
Thirty ovariectomized female SD rats weighed between 220.0-250.0 g were randomized into 5 groups: the negative control group, the positive control group, comprising 1. Estradiol Benzoate group, 2. ZuoGuiWan group, 3. GengNianAn group, and the test group. The rats in the negative control, ZuoGuiWan, GengNianAn and the test groups received respective drug and dose as indicated intragastrically. The rats in Estradiol Benzoate were injected with estradiol at the above-indicated dose. All rats received administration once everyday for consecutive 28 days. During the 28 days, a daily pap smear was performed before drug administration. Twenty-four hours after the last administration, all of the rats were weighed, anesthetized, blood withdrawn and killed. The uterus was then removed and half of the uterus was weight in wet. The other half of the uterus was dried for 8 hours in an oven for the measurement of dried weight. The serum estrogen and progesterone levels were determined using radioimmunoassay (RIA) method.

KM mice [7] = assay: Step-down test on normal mice (scopolamine); settings: n = 10 mice, oral 14 days: Composition I 14 g (crude herb)/kg/d, Huperzine A 1.5 ug/kg/d
Description: A step-down recorder, comprising a platform and a copper floor, is provided. The mice were placed on the copper floor. When the cooper floor is electrified, the normal reaction of the mice is to jump up to the platform to avoid the electric shock. After a period of time, the mice may forget about the shock and jump back to the floor. This jumping back to the floor is an “error reaction”. The mice that jump back to the floor received electric shock again and would jump back to the platform again. The duration between the first jump up (to the platform) and back (to the floor) is called the “latency period”. The number of jumping backs (error reactions) in a certain period of time could serve as an indicator of the memory of the mice.
Based on the Principle, agents that are able to reduce the error reactions of mice in a certain period of time and […] the latent period are deemed effective in memory improvement. Xu S Y. (1991), Chen Q. (1996), Zhang J T. (1998),Yang J, Wang J, et al. (2000).
Code: YLS-2 T, purchased from Facility station of Shandong Academy of Medical Science Method:
Thirty normal female mice were randomized into 3 groups of 10: negative control, positive control (Huperzine A) and the test group. Mice in the three groups received respective drugs and doses orally as indicated above, once per day for consecutive 14 days. An hour after the last administration, all the mice were administrated with 2 mg/kg scopolamine intraperitoneally. 30 minutes later, the mice were placed in the step down recorder for 5 minutes for pre-adaptation. After the pre-adaptation, the copper floor was electrified for 5 minutes. The number of electric shocks each mouse received in the 5 minutes was recorded. After 24 hours, the test was conducted again.
The number of shocked mice, the latency period of each mouse, and the average number of error reactions in 3 minutes were recorded.

KM mice [8] = assay: Step through test on normal mice (ethanol-induced memory impairment); settings: oral 14 days: Composition I 14 g (crude herb)/kg/day, Huperzine A 1.5 ug/kg/day
Description: A Step Through Test Box for Mouse with a light room and a dark room inside is provided. The mice are placed in the light room with their back facing the door. When the mice come out from the light room and enter the dark room, they get shocked, such behavior is called an error reaction. The first duration before an error reaction occurs after a mouse is placed in the box is called the latency period. Mice bearing better memories have longer latency period and commit less error reactions in a certain period of time.
Agents that are able to increase the latency period and reduce error reactions of mice in the Step Through Test Box are deemed effective in improving the memory of animals. Reference: Xu S Y (1991), Chen Q (1996), Zhang J T. (1998), Yang J, Want J. et al (2000), and Zhu X D and Tang X C.
Animals: KM mice, female, 18-20 g, purchased from Shanghai Experimental Animal Center of the Chinese Academy of Sciences.
Thirty normal female mice weighed between 18-20 g were randomized into 3 groups of 10: negative control, positive control (Huperzine A) and the test group. The mice were administered orally with the above-indicated doses and drugs, once a day for 14 days. An hour after the last administration (day 14), all the mice were orally given 45% ethanol (0.1 ml/10 g). 30 minutes later, the mice were placed in the light room of the test box with their back facing the door. When the mice entered the dark room and got shocked, the latency period was recorded (the 1st latency period). The test was conducted again 24 hours later, wherein the number of mice entering the dark room (error reaction) and the latency period (the 2nd latency period) were recorded.

[9] = Composition I 7 g (crude herb)/kg/day i.g., ZuoGuiWan 7 g/kg/day, GengNianAn 6 g/kg/day, Estradiol Benzoate 0.01 mg/kg/day injected
[10] = 5 minutes pre-adaptation (first test), scopolamine 2 mg/kg i.p.
[11] = 24 hours after scopolamine administration
[12] = The second test (24 h later), 45% ethanol

For `C[C@]12CC[C@@H]3c4ccc(O)cc4CC[C@H]3[C@@H]1CC[C@@H]2O` [17β Estradiol], the “Percentage of FRAP value remained after 4 weeks of treatment” value (ovariectomized hamsters [1]) was 88.32 ± 21.06 (p = 0.17) % and the Kidney cholesterol (ovariectomized hamsters [2]) was 3.5 ± 0.4 mg/g.
For `CN1C(=O)CN=C(c2ccccc2)c2cc(Cl)ccc21` [Diazepam], the “Sleeping Time” value [3] was 2927.8 ± 1061.2 s, the “Locomotion times during the 3 minutes, 1 hour after drug” value (KM mice [4]) was 61.0 ± 11.6 and the “Locomotion times during the 3 minutes, 3 hour after drug” value (KM mice [4]) was 46.2 ± 11.3. The “Shuttle Time” value (normal female mice) was 76.1 ± 8.90, the “Time spent in dark box” value (normal female mice) was 166.6 ± 45.05 and the “Shuttle Time” value (ovariectomized mice) was 20.5 ± 10.7 (p = 0.874). For the same compound, the “Time spent in dark box” value (ovariectomized mice) was 47.4 ± 31.9, the “Time spent in open arm × 100% / Time spent in both arms” value (ovariectomized rats [5]) was 6 ± 7% and the “Times of entering open arm × 100% / Times of entering both arms” value (ovariectomized rats [5]) was 12 ± 11%.
With `C[C@]12CC[C@@H]3c4ccc(OC(=O)c5ccccc5)cc4CC[C@H]3[C@@H]1CC[C@@H]2O` [Estradiol Benzoate] the “Serum Estrogen” value (ovariectomized rats [6]; [9]) was 33.00 ± 21.76 ng/mL, the “Serum Progesterone” value (ovariectomized rats [6]; [9]) was 25.85 ± 6.15 ng/mL and the “Visceral Index” value (ovariectomized rats [6]; doses as for serum levels) was 0.246 ± 0.030 g/100 g BW. For the same compound, the “Wet weight of uterus” value (ovariectomized rats [6]; doses as for serum levels) was 0.597 ± 0.064 g.
`C/C=C1\[C@H]2C=C(C)C[C@]1(N)c1ccc(=O)[nH]c1C2` [Huperzine A] was tested, and the “Number of shocks per mouse” value (KM mice [7]; [10]) was 5.7 ± 2.7, the “Total number of shocks” value (KM mice [7]; [10]) was 51 and the “First step down latency period” value (KM mice [7]; [11]) was 200.6 ± 137.2 s. For the same compound, the “Number of error reactions in 3 minutes” value (KM mice [7]; [11]) was 8, the “Number of shocked mice” value (KM mice [7]; [11]) was 5 and the “The 1st latency period” value (KM mice [8]; The first test, 45% ethanol 0.1 ml/10 g orally) was 19.3 ± 16.16. The “No. of error reactions” value (KM mice [8]; [12]) was 1.4 ± 2.0 and the “The 2nd latency period” value (KM mice [8]; [12]) was 196.2 ± 121.9.
